{"source": "paper PMC5719408", "about": "“Multivalent cross-linking of actin filaments and microtubules through the microtubule-associated protein Tau” (Nature Communications, 2017)", "key": {"F-actin [1]": {"test_system": "F-actin", "test": "Protein co-sedimentation / actin bundling (differential centrifugation, SDS gel)", "assay_type": "biochemical, human", "conditions": "for bundling of F-actin: co-sedimentation, F-actin with Tau (1:1) or Tau peptides (1:10, Tau(254–268) 1:30), room temperature 30 min", "procedure": "The ability of Tau to bundle F-actin was studied using electron microscopy (EM). […] Next, Tau/F-actin co-sedimentation was performed. The same sample, which was used for EM, was exposed to two sequential steps of centrifugation, in which single-actin filaments and actin bundles were collected separately. Subsequently, aliquots from supernatant (SN), filament (PF), and bundle (PB) fractions were loaded in a 4–20% gradient gel (Fig. 1c).\n(§1) The sample was then dialyzed against General Actin Buffer (GAB; 5 mM TrisHCl pH 8.0, 0.2 mM CaCl2, 0.2 mM ATP, 0.5 mM DTT) or NMR buffer (50 mM NaH2PO4/Na2HPO4 pH 6.8, 10 mM NaCl, 1 mM DTT, 10% (v/v) D2O) to be used for electron microscopy or NMR experiments, respectively. In case of actin, lyophilized actin was reconstituted to 10 mg ml^−1 by adding 100 μl of distilled water to be in the following buffer: GAB with 5% (w/v) sucrose and 1% (w/v) dextran. Subsequently, the sample was spun at 18,400 × g for 15 min, the supernatant was kept, and actin was polymerized by incubating 0.4 mg ml^−1 G-actin in GAB and supplemented with polymerization buffer (1/10th the volume; 100 mM Tris HCl pH 7.5, 20 mM MgCl2, 500 mM KCl, 10 mM ATP) for 1 h at room temperature. Afterwards, the sample was centrifuged at 100,000 × g during 1 h at 4 °C. Filaments were collected at the bottom of the ultracentrifuge tube. The pellet was then resuspended in GAB or NMR Buffer as required.\nMixtures of F-actin with Tau (1:1) or Tau peptides (1:10 molar ratio) were incubated at room temperature for 30 min. In case of the shorter peptide Tau(254–268), a 1:30 ratio was used. Centrifugation was performed in two steps. First, a spin rate of 5000 × g was used during 15 min to collect bundles of F-actin (PB) at the bottom of the tube. Secondly, the remaining sample was centrifuged at 100,000 × g during 1 h collecting actin filaments (PF). The final supernatant (SN) was also kept for later usage. Pellets were resuspended in 80 μl of GAB. A volume of 25 μl of sample were taken for EM while the remaining 55 μl were loaded in a 4–20% gradient SDS gel, which was colored with […] and denatured with SDS and heat."}, "F-actin [2]": {"test_system": "F-actin", "test": "Transfer NOE (2D NOESY) of Tau peptides with F-actin", "assay_type": "binding, human", "conditions": "27 μM F-actin, 800 μM peptide, NMR buffer pH 6.8 with 0.2 mM ATP and 0.2 mM CaCl2, 278 K", "text": "Instead, short hydrophobic Tau segments, which are separated from each other by flexible residues, bind dynamically to actin’s hydrophobic pocket (Fig. 2). […] NMR Nuclear overhauser effect (NOE) measurements that are sensitive for three-dimensional structure were subsequently performed. […] This approach is called transfer NOE and has been widely used to determine the structure of small ligands in complex with high molecular weight binding partners.\nTwo-dimensional NOESY experiments with five different mixing times ranging from 50 up to 250 ms were recorded for Tau(254–290) in the presence of F-actin. […] The NOE peaks, which were observed only in the presence of F-actin, provide experimental restraints for the structure of Tau(254–290) in complex with F-actin.\nas §1\nNMR spectra were acquired on Bruker Avance800 and 900 MHz NMR spectrometers at 278 K to reduce solvent exchange. 2D ^1H-^15N HSQC spectra consisted of 64 scans, spectral windows of 12 ppm in the proton and 25 ppm in the nitrogen dimension. 2D NOESY experiments were acquired using 88 scans, 12 ppm spectral width and a time domain of 512 and 2048 points in the first and second dimension, respectively. To generate buildup curves, mixing times of 50, 80, 100, 150, and 250 ms were used.\nFor NOESY experiments, 27 μM of F-actin were mixed with 800 μM of Tau peptide in NMR buffer supplemented with 0.2 mM ATP and 0.2 mM CaCl2. A reference experiment was performed in similar conditions only with 800 μM peptide. For resonance assignment, a 2D TOCSY experiment with a mixing time of 75 ms was performed. All data were processed using NMRPipe[76] and analyzed using Sparky[77]."}, "NBD-labeled F-actin": {"target": "T1, NBD-labeled F-actin (Oryctolagus cuniculus, UniProt P68135)", "T1 construct": "NBD-conjugated actin from α-skeletal muscle was bought from Hypermol; purchased Hypermol (Bielefeld, Germany); host or cells: α-skeletal muscle (tissue-derived (so in the source))", "test": "F-actin binding assay (NBD fluorescence change)", "conditions": "25 °C", "protocol": "In order to gain insight into the affinity of the Tau/F-actin-interaction, the change in fluorescence of 7-chloro-4-nitrobenz-2-oxa-1,3-diazole (NBD)-labeled F-actin upon addition of Tau was followed[31]. 0.2 μM of NBD-labeled and phalloidin-stabilized F-actin were mixed with increasing amounts of Tau (Fig. 1d and Supplementary Fig. 1).\nNBD-conjugated actin from α-skeletal muscle was bought from Hypermol (Bielefeld, Germany). In this experiment, 7-chloro-4-nitrobenz-2-oxa-1,3-diazole (NBD)-labeled G-actin was polymerized starting from 0.4 mg ml^−1 of the conjugated actin supplemented with 10-fold excess of phalloidin (catalog no. P2141, Sigma-Aldrich) to provide stable filaments. […] The change of fluorescence intensity from NBD was followed in a Cary Eclipse fluorescence spectrophotometer (Agilent Technologies, Inc.). […] As reported by Hertzog, M. et al.[31] the normalized decrease in fluorescence (equation 1) was analyzed and fitted by using equation 2.1 E=F-F0/Fmax-F0 2 E=1/2C+1/2Z-1/2C+Z^2-4Z with Z=[partner]/[F-actin]andC=1+Kd/[F-actin]\nAffinity of Tau and Tau fragments for binding to NBD-labeled F-actin. (a) Change of NBD fluorescence upon addition of increasing concentrations of Tau and Tau fragments. […]\n(b) Bar diagram showing Kd values, which were determined based on the quenching effect of Tau/Tau fragments on the fluorescent properties of NBD-labeled F-actin. […]"}, "F-actin [3]": {"test_system": "F-actin", "test": "Saturation transfer difference (STD) NMR with F-actin", "assay_type": "binding, human", "conditions": "compared with wild-type Tau(254–290)", "procedure": "We therefore prepared a mutant version of Tau(254–290), in which L266 was replaced by a glutamate, i.e., Tau(254–290)-L266E. We then used saturation transfer difference (STD)[49] experiments to probe the influence of the mutation on binding of Tau(254–290) to F-actin.\nas §1"}, "F-actin [4]": {"test_system": "F-actin", "test": "Electron microscopy of actin bundles", "assay_type": "biochemical, human", "conditions": "uranyl acetate stain, room temperature", "procedure": "The ability of Tau to bundle F-actin was studied using electron microscopy (EM). The diameter of single actin filaments was approximately 7 nm, in agreement with previous studies, [30]. […] Actin bundles ranged between 20 and 150 nm in diameter. Next, Tau/F-actin co-sedimentation was performed. The same sample, which was used for EM, was exposed to two sequential steps of centrifugation, in which single-actin filaments and actin bundles were collected separately. Subsequently, aliquots from supernatant (SN), filament (PF), and bundle (PB) fractions were loaded in a 4–20% gradient gel (Fig. 1c). […] In addition, ~8% of Tau molecules were bound to single filaments, while ~29% of Tau was found together with actin bundles.\nThe sample was then dialyzed against General Actin Buffer (GAB; 5 mM TrisHCl pH 8.0, 0.2 mM CaCl2, 0.2 mM ATP, 0.5 mM DTT) or NMR buffer (50 mM NaH2PO4/Na2HPO4 pH 6.8, 10 mM NaCl, 1 mM DTT, 10% (v/v) D2O) to be used for electron microscopy or NMR experiments, respectively. […]\nSamples were bound to a glow discharged carbon foil covered copper grid. […] The samples were evaluated at room temperature using a CM 120 transmission electron microscope (FEI, Eindhoven, and The Netherlands) and a TemCam F416 CMOS camera (TVIPS, Gauting, Germany)."}, "F-actin [5]": {"test_system": "F-actin", "test": "Titration of F-actin into 15N-Tau, two-state Bloch-McConnell fit (peer review file)", "assay_type": "binding, human", "conditions": "grid-search pushed to the edge of the parameter space, fits were not good", "text": "(4 pictures or pasted objects on this page, not shown here)"}, "F-actin [6]": {"target": "F-actin", "conditions": "phosphate buffer; read-out: Kd of Tau/F-actin, previously reported; cited from earlier work", "procedure": "0.2 μM of NBD-labeled and phalloidin-stabilized F-actin were mixed with increasing amounts of Tau (Fig. 1d and Supplementary Fig. 1). […] Other stoichiometries, however, cannot be excluded. The derived dissociation constant is lower than a previously reported value of 241 ± 43 nM[7] ..."}, "Tau": {"test_system": "Tau", "test": "Binding of cofilin to Tau (HSQC)", "set-up": "species or system human", "conditions": "15N-Tau/F-actin 1:1.5, 10-fold excess of cofilin", "procedure": "In order to gain insight into how Tau regulates the polymerization and structure of F-actin, we sought to obtain information about the Tau-binding site on F-actin. […] One of these binding partners is cofilin, a 21 kDa eukaryotic protein, which binds to F-actin with a K d < 0.05 µM[33] and results in disassembly of F-actin[34], [35]. […] To test if the binding site of Tau on F-actin overlaps with that of cofilin, we added a 10-fold excess of cofilin to a solution containing ^15N-labeled Tau and 1.5-fold excess (with respect to Tau) of F-actin. For the resulting mixture, a ^1H-^15N HSQC spectrum was recorded. […] Subsequently, we repeated the actin/Tau co-sedimentation assay in the presence of cofilin.\nHuman Tau (2N4R) was expressed in the E. coli strain BL21 (DE3) (MERCK Millipore) using the vector pNG2 as described. The bacterial pellet was resuspended in lysis buffer (50 mM Mes, 500 mM NaCl, 1 mM MgCl2, 1 mM EGTA, 5 mM DTT, pH 6.8) and supplemented with a protease inhibitor mixture. Cells were disrupted using a French pressure cell and subsequently boiled for 20 min. […]\nFor HSQC-based competition experiments, 20 μM of ^15N-labeled Tau were mixed with 30 μM F-actin in NMR buffer supplemented with 0.2 mM ATP and 0.2 mM CaCl2 (sample 2). […] Competition was monitored by reading out the variation in signal broadening in 2D ^1H-^15N HSQC spectra of Tau."}, "F-actin [7]": {"test_system": "F-actin", "test": "Protein co-sedimentation / actin bundling (differential centrifugation, SDS gel)", "assay_type": "biochemical, human", "conditions": "molar ratio 1.5:1:10"}, "F-actin [8]": {"target": "F-actin", "conditions": "read-out: Kd of cofilin for F-actin; cited from earlier work", "procedure": "In order to gain insight into how Tau regulates the polymerization and structure of F-actin, we sought to obtain information about the Tau-binding site on F-actin. […] One of these binding partners is cofilin, a 21 kDa eukaryotic protein, which binds to F-actin with a K d < 0.05 µM[33] and results in disassembly of F-actin[34], [35]."}}, "note": "Like-named read-outs stand apart in the source and are kept apart here.", "data": [{"substance": "K18: artificial fragment of Tau which comprises all four repeats (residues Gln244–Glu372 plus initial Met243)", "values": [{"measurement": "bundling of F-actin", "setting": "F-actin [1]", "value": "capable of bundling F-actin"}]}, {"substance": "Tau(254–268): contains the residues which form the helix in the N-terminal half of Tau(254–290) (Ac-KNVKSKIGSTENLKH-NH2)", "values": [{"measurement": "bundling of F-actin", "setting": "F-actin [1]", "value": "not able to bundle F-actin"}, {"measurement": "transfer NOE cross-peaks in presence of F-actin", "setting": "F-actin [2]", "value": "folds into an α-helix (residues 259–265) in complex with F-actin"}]}, {"substance": "Tau(254–284): Tau peptide, residues 254–284", "values": [{"measurement": "bundling of F-actin", "setting": "F-actin [1]", "value": "promoted actin bundles"}]}, {"substance": "Tau(254–290)-L266E: mutant version of Tau(254–290), in which L266 was replaced by a glutamate (Ac-KNVKSKIGSTENEKHQPGGGKVQIINKKLDLSNVQSK-NH2)", "values": [{"measurement": "affinity for F-actin relative to parent (in words)", "setting": "NBD-labeled F-actin; NBD-labeled F-actin, GAB, values only in Supplementary Fig. 1b bar diagram", "value": "decrease in affinity"}, {"measurement": "bundling of F-actin", "setting": "F-actin [1]", "value": "less efficient in promoting F-actin bundling"}, {"measurement": "STD signal relative to wild-type peptide", "setting": "F-actin [3]", "value": "decreased STD signal"}, {"measurement": "transfer NOE cross-peaks in presence of F-actin", "setting": "F-actin [2]", "value": "no additional cross-peaks were observed"}]}, {"substance": "Tau(254–290): synthetic Tau peptide, acetyl and amide protection groups at the N- and C terminus", "values": [{"measurement": "bundling of F-actin (electron microscopy)", "setting": "F-actin [4]", "value": "bundles filaments"}, {"measurement": "transfer NOE cross-peaks in presence of F-actin", "setting": "F-actin [2]", "value": "additional NOE cross-peaks were observed"}]}, {"substance": "Tau(292–319): Tau peptide comprising the residues of repeat R2 and R3", "values": [{"measurement": "bundling of F-actin", "setting": "F-actin [1]", "value": "promotes bundling of actin filaments"}, {"measurement": "transfer NOE cross-peaks in presence of F-actin", "setting": "F-actin [2]", "value": "revealed NOEs specific for the Tau(292–319)/F-actin complex"}]}, {"substance": "Tau: full-length human Tau (2N4R), expressed in E. coli", "values": [{"measurement": "Kd", "setting": "NBD-labeled F-actin; NBD-labeled, phalloidin-stabilized F-actin (α-skeletal muscle actin), 0.2 μM (Results) / 0.25 µM (Methods) F-actin, GAB (5 mM TrisHCl pH 8.0, 0.2 mM CaCl2, 0.2 mM ATP, 0.5 mM DTT), single-binding site fit, s.d. from three experiments, read-out: dissociation constant (Kd) of Tau or Tau fragment for F-actin", "value": "60 ± 10", "unit": "nM"}, {"measurement": "Tau found together with actin bundles (PB)", "setting": "F-actin [1]; F-actin:Tau 1:1, room temperature 30 min, pellet of 5000 × g, 15 min", "value": "~ 29%"}, {"measurement": "Tau bound to single filaments (PF)", "setting": "F-actin [1]; F-actin:Tau 1:1, room temperature 30 min, pellet of 100,000 × g, 1 h", "value": "~ 8%"}, {"measurement": "Tau remaining in supernatant (SN)", "setting": "F-actin [1]; F-actin:Tau 1:1, room temperature 30 min, quantification of gel band intensity, supernatant after 100,000 × g", "value": "~ 63%"}, {"measurement": "bundling of F-actin", "setting": "F-actin [1]", "value": "bundles actin filaments"}, {"measurement": "bundling of F-actin (electron microscopy)", "setting": "F-actin [4]", "value": "caused bundling of F-actin"}, {"measurement": "kon, local two-state NMR fit (residues I260, L266, G287/V287)", "setting": "F-actin [5]", "value": "~10^7 M-1s-1"}, {"measurement": "Kd", "setting": "F-actin [6]", "value": "241 ± 43", "unit": "nM"}]}, {"substance": "cofilin: human cofilin (catalog no. CF01, Cytoskeleton, Inc.), 21 kDa eukaryotic actin-binding protein", "values": [{"measurement": "binding of cofilin to Tau", "setting": "Tau", "value": "does not bind to Tau"}, {"measurement": "disassembly of actin filaments by cofilin", "setting": "F-actin [7]; F-actin + Tau + cofilin", "value": "actin filaments were not disassembled by cofilin"}, {"measurement": "effect of cofilin on Tau co-sedimentation with F-actin", "setting": "F-actin [7]", "value": "decreased the amount of Tau that co-sedimented with F-actin"}, {"measurement": "Kd", "setting": "F-actin [8]", "value": "< 50", "unit": "nM"}]}]}
